Test results from US20040014028A1, “Method for determination of protective epitopes for vaccination, diagnosis and vaccine quality control” (Wolf Biotech, priority 2002, published 2004).

Columns and labels:
swine neutralizing serum = test: Synthetic peptide ELISA with swine anti-PRRSV neutralizing serum; format: binding; settings: NS from different immunized swine
Description: (§1) In FIG. 6 there is show the reactivity of Monoclonal antibody ISU25-C1 and swine anti-PRRSV hyperimmune sera to synthetic peptides bound to MBS coated ELISA plates. Results are expressed as corrected Optical density (OD) at 405 nm (OD405): (OD tested peptide-OD irrelevant peptide P7, Table 1). SN titer was determined against PRRSV Iowa strain. ELISA s/p ratio was determined as the difference in the optical density (OD) of the test serum between viral and control antigens divided by the difference in the OD of the positive reference between viral and control antigens. Serums 3, 5, 6 y 8 are from PRRSV-hyperimmunized pigs, serum 19 is a negative control, ISU 25-C1 and ISU 19A1 (Yang, L et al, Arch. Virol. 145:1599-1619, 2000) are anti-PRRSV neutralizing and non-neutralizing monoclonal antibodies respectively.
(§2) Several deduced peptides and variations of them were synthesized using solid phase technology and Fmoc standart chemistry. To perform ELISAs with these synthetic peptides, they were diluted in PBS pH 6.8 to a final concentration of 50 μg/ml, and then were used to coat Reacti-Bind Maleimide-Activated Plates (Pierce, Rockford, Ill.) for 5 hours at room temperature. Remaining maleimide groups were blocked by a 1-hour incubation with cysteine-HCl 10 μg/ml diluted in PBS pH 6.8. An extra blocking step was carried out by incubating the plate with PBS containing 10% milk. Sera or affinity-purified antibodies were added in different dilutions and incubated for 1 hour at room temperature.

[1] = test system: anti-peptide S2-affinity purified antibodies; test: Inhibition by synthetic peptides of binding of anti-peptide S2-affinity purified antibodies to phage clone S2-4; design: species or system swine; settings: serial five-fold dilutions of peptide
Description: In FIG. 8, there is shown the inhibition by synthetic peptides of the binding of anti-peptide S2-affinity purified antibodies to phage clone S2-4. Serial five-fold dilutions of synthetic peptides S2 (filled squares), S3 (X) or irrelevant peptide P7(filled circle) were used. Results are expressed as the percentage of the signal obtained with anti-peptide S2 affinity purified antibodies in wells to which no peptides were added. Values are the average of four readings.
This stresses the importance of motif SHF in the composition of epitope B. Anti-peptide S2 affinity-purified antibodies, recognized to a similar extent peptides S2 (OD: 0.336) and S6 (OD: 0.369), confirming that residues H^38, Q^40, I^42, Y^43 and N^44 constitute the core of epitope B.

[2] = test system: anti-peptide S2-affinity purified antibodies; test: Synthetic peptide ELISA on maleimide-activated plates with anti-peptide S2-affinity purified antibodies; format: binding, swine; settings: for recognition by S2 affinity purified antibodies in ELISA: synthetic peptides bound to MBS coated plates; for ELISA signal (OD) with anti-peptide S2 affinity-purified antibodies: synthetic peptide bound to ELISA plate
Description: (§3) In FIG. 7, there is shown the reactivity of anti peptides-affinity purified antibodies to synthetic peptides bound to MBS coated ELISA plates. Results are expressed as corrected OD405 (OD tested peptide-OD irrelevant peptide P7, Table 1).
as §2
(§4) Based on the previous results, anti-epitope A and anti-epitope B antibodies were affinity purified from a pool of precipitated antibodies with a SN titer of 1:512 using Keyhole-limpet hemocianine (KLH)-conjugated peptides coupled to CNBr-activated Sepharose as ligand as it is known in the art. R4N/R1N-affinity purified antibodies recognized peptides R4N, peptide R1N and peptide S1. All these peptides contain an (A/V)LVN motif.

[3] = test system: R4N/R1N-affinity purified antibodies; test: Synthetic peptide ELISA on maleimide-activated plates with R4N/R1N-affinity purified antibodies; format: binding, swine; settings: synthetic peptides bound to MBS coated plates
Description: as §3, §2, §4

[4] = test system: Monoclonal antibody ISU25-C1; test: Competition ELISA: inhibition by synthetic peptides of binding of monoclonal antibody ISU25-C1 to PRRSV-coated strips; design: species or system mouse; settings: peptide concentration 333 μM
Text: In FIG. 5 there is shown the inhibition by synthetic peptides of the binding of monoclonal antibody ISU25C1 (solid lines) or monoclonal antibody ISU19-A1 (dofted lines) to PRRSV in ELISA. Serial five-fold dilutions of synthetic peptide S4 were used (filled squares). Unrelated peptide P7 was used with monoclonal antibody ISU25C1 as a negative control (filled circles). Results are expressed as the percentage of the anti PRRSV-specific signal obtained with each monoclonal antibody in wells to which no peptides were added. Values are the average of four readings.
To perform competition assays, several dilutions of peptide S4 and irrelevant peptide […] (shown in Table 1) were incubated with Monoclonal antibody ISU25-C1 for 1.5 hours at room temperature. Then, the antibody-peptide mix was added to PRRSV-coated ELISA strips (IDDEX Lab., Inc; Westbrook, Me.) for 45 minutes.

[5] = test system: Monoclonal antibody ISU25-C1; test: Synthetic peptide ELISA with monoclonal antibody ISU25-C1; format: binding, mouse
Description: as §1
as §2, with “Sera or affinity-purified antibodies were added in different dilutions and incubated for 1 hour at room temperature.” left out

swine anti-PRRSV NNS = test: Phage-ELISA with swine anti-PRRSV non-neutralizing serum; format: binding
Description: (§5) In FIG. 4 there is shown the reactivity of swine sera and monoclonal antibodies to selected cloned phages. Results are expressed as corrected OD405 (OD of selected phage-OD unselected phage library NS: serum from pig #6 with a neutralizing titer >64 and ELISA s/p ratio 1.053 NNS: serum from pig #5 with a neutralizing titer <4 and ELISA s/p ratio 0.652.
(§6) To detect peptides on the coat of phages, individual clones shown in FIG. 3 were propagated for 4.5 hours in E. coli ER2738 and then they were purified by two precipitations with PEG 8000. […] phages were added to each well of a Immulon 2HB (Dynex Technologies Inc, Chantilly, Va.) in sodium bicarbonate 0.1 M pH 8.6, and incubated for 16 hours at room temperature in a humidified chamber. Plates were blocked with PBS containing 10% milk for three hours at room temperature. Swine sera or Monoclonal antibody from the tissue culture supernatant were preadsorbed in PBS containing 10% non-fat milk added with 100 μg/ml of E. coli proteins. In addition, 10^10 pfu/ml of non-selected phages were added to the antibodies to reduce background caused by anti M-13 activity found in animal sera. The plates were washed six times with PBS 0.05% Tween-20 and the peroxidase-conjugated secondary antibody (1:500) was added for 30 minutes at 37 C. […] The results were read in a spectrophotometer at 405 nm.

swine anti-PRRSV NS = test: Phage-ELISA with swine anti-PRRSV neutralizing serum; format: binding
Description: as §5, §6

[6] = test system: sera from hyperimmunized pigs; test: Phage-ELISA with sequential sera from hyperimmunized pigs; format: binding, swine; settings: early sera (20 days pi), ELISA positive, negative or low SN titer
Description: Epitopes A and B are represented by phage clones 01 and S2-4 (FIG. 1), respectively. ELISA s/p ratio was determined as the difference in the optical density (OD) of the test serum between viral and control antigens divided by the difference in the OD of the positive reference between viral and control antigens.
as §6, with “proteins.” for “proteins. In addition, 10^10 pfu/ml of non-selected phages were added to the antibodies to reduce background caused by anti M-13 activity found in animal sera. The plates were washed six times with PBS 0.05% Tween-20 and the peroxidase-conjugated secondary antibody (1:500) was added for 30 minutes at 37 C.”
Anti-PRRSV neutralizing antibodies appear late after infection and they are mainly directed against GP5. To determine a correlation between time post-infection and epitope recognition, we evaluated sera from several pigs at two different times of the hyperimmunization protocol as shown in FIG. 9.

[7] = test system: Monoclonal antibody ISU25-C1; test: Phage-ELISA with monoclonal antibody ISU25-C1; format: binding, mouse
Description: as §5, §6

| Sequence | recognition by swine neutralizing serum in peptide ELISA (swine neutralizing serum) | recognition by S2 affinity purified antibodies in ELISA [2] | recognition by R4N/R1N-affinity purified antibodies in ELISA [3] | other results |
| --- | --- | --- | --- | --- |
| SGSGANNSSSSGSGSIYNC [peptide S3, peptide S2 with motif SHF replaced by GSG] | completely abrogated | did not recognize | – | inhibition of the binding of anti-peptide S2-affinity purified antibodies to clone S2-4 [1]: inhibited the binding |
| ALVNIPISNNLAC [peptide R4N] | recognized | did not recognize | recognized | – |
| VLVNSNNSSSSAC [peptide R1N, aminoacids 27-38 of the GP5 of PRRSV IA 97-7895 isolate] | recognized | did not recognize | recognized | – |
| SHITSYPAYFWC [peptide S4, mimotope for ISU25-C1] | do not recognize | – | – | inhibition of the binding of Monoclonal antibody ISU25-C1 to PRRSV [4]: 60%; recognition by Monoclonal antibody ISU25-C1 in peptide ELISA [5]: recognized |
| SGSGSNNSSSSAC [peptide ΔR1N, R1N with residues 27-30 VLVN changed to irrelevant motif SGSG] | abrogated | – | did not recognize | – |
| SGSGANNSSSSHFQSIYNC [peptide S2, GP5 residues 27-44 with residues 27-30 changed to SGSG] | still recognized | recognized | did not recognize | inhibition of the binding of anti-peptide S2-affinity purified antibodies to clone S2-4 [1]: inhibited to a greater extent than peptide S3; recognition by Monoclonal antibody ISU25-C1 in peptide ELISA [5]: does not recognize; ELISA signal (OD) with anti-peptide S2 affinity-purified antibodies [2]: 0.336 OD |
| VLVNANNSSSSHFQSIYNC [peptide S1, residues 27 to 43 of GP5 of IA 97-7895, contains motifs VLVN and HXXXIYN] | strongly recognized | recognized | recognized | – |
| YKNTHLDLIYNA [phage clone S2-4] | – | – | – | recognition of phage-displayed peptide by swine anti-PRRSV non-neutralizing serum (NNS) (swine anti-PRRSV NNS): not by swine non-neutralizing serum; recognition of phage-displayed peptide by swine anti-PRRSV neutralizing serum (NS) (swine anti-PRRSV NS): strongly recognized; reactivity of sera obtained shortly after the beginning of the immunization [6]: very weakly; recognition of phage-displayed peptide by Monoclonal antibody ISU25-C1 [7]: not by swine non-neutralizing serum or by monoclonal antibody ISU25-C1 |
| SGSGANSNSSSHLQLIYNLTLCELC [S6] | – | – | – | ELISA signal (OD) with anti-peptide S2 affinity-purified antibodies [2]: 0.369 OD |
